Data on 15 compounds can be found in patent US20020143064A1, “Novel use of compounds of the chalcones class” (priority 2000, published 2002).

This test concerns HDMEC cells (Human Dermal Microvascular Endothelial Cells). The experiment in a line: Detachment of endothelial cells in vitro (HDMEC detachment test). The format is cell-based. As to conditions: Endothelial cell, 2 h, 1 μM compound, two hours treatment, plates precoated with fibronectin, vitronectin or gelatin, calcein fluorescence, relative to untreated control, mean of six samples, >=15% regarded as significant, read-out: Percentage of detachment of HDMEC cells induced by 1 μM of compound. How it is done:
A test for the determination of the detachment of endothelial cells has been developed in order to select products with respect to their “in vitro” activity. Such test was employed in the present invention. By way of this test, the endothelial cells were inoculated in plates, the bottom of which were covered with at least one binding agent, for example, chosen from gelatin, fibronectin, and vitronectin. The inoculated endothelial cells were then cultured. The cultured endothelial cells were treated with a medium comprising the test compound. The cells were then labeled with a fluorescent substance. The detached cells were removed by washing; and the fluorescence of the remaining cells was counted with a fluorimeter.
This test measures the detachment of endothelial cells cultured on substrata based on at least one binding agent, for example, chosen from fibronectin, vitronectin, and gelatin. Generally, one day after the cells were seeded in plates, which comprised, for example, 96 wells, the culture medium was replaced by a medium, which comprised the test compound in the absence of serum. The same preparation was prepared six times at three different concentrations ([…]) and the control was prepared six times without addition of antivascular product. After the cells were treated for two hours with the test substance, the cells were labeled with calcein AM (1.6 μg/ml) in culture medium supplemented with 0.1% of BSA. The cells that detached were removed by washing with culture medium comprising 0.1% of bovine serum albumin. 100 μl of medium were then added to each well. The fluorescence of the remaining cells was counted with a fluorimeter. The data obtained is expressed with respect to the control (untreated cells).
The evaluation of the detachment of endothelial cells in vitro was determined in the following way: HDMEC cells (Human Dermal Microvascular Endothelial Cells, Promocell, c-122102) were cultured in an ECGM-MV medium which comprised 5% of foetal calf serum, growth factors (EGF 10 ng/ml, hydrocortisone 1 μg/ml, 0.4% growth supplement with heparin) and antibiotics (amphotericin 50 ng/ml, gentamicin 50 μg/ml). For the detachment test, the HDMECs were inoculated at 5000 cells in clear-bottomed 96-well plates (Costar) precoated with fibronectin (10 μg/ml) or vitronectin (1 μg/ml) or gelatin. Twenty four hours later, the culture medium was replaced with ECGM-MV 0.1% BSA medium comprising the products shown. The concentrations tested were 0.1, 0.3 and 1 μM for each product. After treating for two hours, the cells were labeled for one hour with calcein (1.6 μg/ml, Molecular Probes) in ECGM-MV 0.1% BSA medium. The detached cells were subsequently removed by washing with ECGM-MV 0.1% BSA medium; 100 μl of medium was added to each well. The fluorescence of the cells which remained attached to the substratum of the well were counted using a fluorimeter, Spectrafluor Plus (Tecan, excitation 485 nm and emission 535 nm).
A cell detachment effect of greater than or equal to 15% is regarded as significant.
On to `COc1ccc(OC)c(C(=O)/C=C/c2ccc(NC(C)=O)cc2)c1` [Comparative Example 1, reference compound], for which the inhibition at 1 µM is 2%.

For `CCCCNc1ccc(/C=C(\C)C(=O)c2cc(OC)c(OC)c(OC)c2)cc1` [Comparative Example 2, reference compound], the inhibition at 1 µM is 6%.

Take `COc1ccc(OC)c(C(=O)/C(C)=C/c2ccc(N(C)C)cc2)c1` [Example 1]: the inhibition at 1 µM is 23 to 49%.

Turning to `CCN(CC)c1ccc(/C=C(\C)C(=O)c2cc(OC)ccc2OC)cc1` [Example 2], the inhibition at 1 µM was 20 to 23%.

As to `COc1ccc(OC)c(C(=O)/C(Cl)=C/c2ccc(N(C)C)cc2)c1` [Example 3], the inhibition at 1 µM was 25 to 29%.

`COc1ccc(OC)c(C(=O)/C=C/c2ccc(N(C)C)cc2)c1` [Example 4]: the inhibition at 1 µM is 18 to 19%.

As to `COc1cc(C(=O)/C(C)=C/c2ccc(N(C)C)cc2)cc(OC)c1OC` [Example 5], the inhibition at 1 µM is 15%.

For the compound `CCN(CC)c1ccc(/C=C(\C)C(=O)c2ccc(OC)c(OC)c2OC)cc1` [Example 6], the inhibition at 1 µM was 35 to 41%.

Regarding `COc1ccc(C(=O)/C(Cl)=C/c2ccc(N(C)C)cc2)c(OC)c1OC` [Example 7], the inhibition at 1 µM was 22 to 42%.

In the case of `COc1cc(C(=O)/C(Cl)=C/c2ccc(N(C)C)cc2)cc(OC)c1OC` [Example 8], the inhibition at 1 µM was 23 to 43%.

`CCN(CC)c1ccc(/C=C/C(=O)c2ccc(OC)c(OC)c2OC)cc1` [Example 9]: the inhibition at 1 µM was 19%.

As for `CC/C(=C\c1ccc(N(C)C)cc1)C(=O)c1ccc(OC)c(OC)c1OC` [Example 10], the inhibition at 1 µM was 15%.

Turning to `CCN(CC)c1ccc(/C=C/C(=O)c2cc(OC)c(OC)c(OC)c2)cc1` [Example 11], the inhibition at 1 µM is 20%.

`COc1ccc(C(=O)/C(Br)=C/c2ccc(N(C)C)cc2)c(OC)c1OC` [Example 13]: the inhibition at 1 µM was 23 to 34%.

Take `COc1ccc(C(=O)/C=C/c2ccc(N(C)C)cc2)c(OC)c1OC` [Example 14]: the inhibition at 1 µM was 18 to 20%.
